According to PubChem BioAssay AID1918945 (Molecular Pharmacology Branch, DTP, NCI, 2023):

System: 883617-216-R-J1-PDC complex spheroid viability
Test: Anticancer human tumor 883617-216-R-J1-PDC patient-derived bladder carcinoma cell line growth inhibition
Details: for IC50: curve of first compound; for viability, T/C: stronger effect = lower value
In short: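 Drug combinations with the LSD1 inhibitor iadademstat tested on tumor cells co-cultured as spheroids with endothelial cells and mesenchymal stem cells. Concentrations descended in half-log increments from clinical Cmax or 10 microM.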

[1] = second compound 0.1 µM, first compound 0.0316 µM
[2] = second compound 0.1 µM, first compound 0.1 µM
[3] = second compound 0.316 µM, first compound 0.0316 µM
[4] = second compound 0.316 µM, first compound 0.1 µM
[5] = second compound 1 µM, first compound 0.0316 µM
[6] = second compound 1 µM, first compound 0.1 µM
[7] = second compound 3.16 µM, first compound 0.0316 µM
[8] = second compound 3.16 µM, first compound 0.1 µM
[9] = second compound 10 µM, first compound 0.0316 µM
[10] = second compound 10 µM, first compound 0.1 µM
[11] = second compound 0.1 µM, first compound 0.000949 µM
[12] = second compound 0.1 µM, first compound 0.003 µM
[13] = second compound 0.1 µM, first compound 0.00949 µM
[14] = second compound 0.1 µM, first compound 0.03 µM
[15] = second compound 0.1 µM, first compound 0.0949 µM
[16] = second compound 0.1 µM, first compound 0.3 µM
[17] = second compound 0.316 µM, first compound 0.000949 µM
[18] = second compound 0.316 µM, first compound 0.003 µM
[19] = second compound 0.316 µM, first compound 0.00949 µM
[20] = second compound 0.316 µM, first compound 0.03 µM
[21] = second compound 0.316 µM, first compound 0.0949 µM
[22] = second compound 0.316 µM, first compound 0.3 µM
[23] = second compound 1 µM, first compound 0.000949 µM
[24] = second compound 1 µM, first compound 0.003 µM
[25] = second compound 1 µM, first compound 0.00949 µM
[26] = second compound 1 µM, first compound 0.03 µM
[27] = second compound 1 µM, first compound 0.0949 µM
[28] = second compound 1 µM, first compound 0.3 µM
[29] = second compound 3.16 µM, first compound 0.000949 µM
[30] = second compound 3.16 µM, first compound 0.003 µM
[31] = second compound 3.16 µM, first compound 0.00949 µM
[32] = second compound 3.16 µM, first compound 0.03 µM
[33] = second compound 3.16 µM, first compound 0.0949 µM
[34] = second compound 3.16 µM, first compound 0.3 µM
[35] = second compound 10 µM, first compound 0.000949 µM
[36] = second compound 10 µM, first compound 0.003 µM
[37] = second compound 10 µM, first compound 0.00949 µM
[38] = second compound 10 µM, first compound 0.03 µM
[39] = second compound 10 µM, first compound 0.0949 µM
[40] = second compound 10 µM, first compound 0.3 µM
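Also: exposure lasted seven days after three days of spheroid growth.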
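For viability, T/C in this document: 100% = DMSO vehicle control luminescence.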

## CC[C@@]1(O)C(=O)OCc2c1cc1n(c2=O)Cc2cc3c(CN(C)C)c(O)ccc3nc2-1 + NC1CCC(NC2CC2c2ccccc2)CC1
Second compound 0.1 µM
  IC50: 4.71 nM
Second compound 0.316 µM
  IC50: 5.7 nM
Second compound 1 µM
  IC50: 6.31 nM
Second compound 3.16 µM
  IC50: 6.47 nM
Second compound 10 µM
  IC50: 7.25 nM
Second compound 0.1 µM, first compound 0.000316 µM
  viability, T/C: 94.9%
Second compound 0.1 µM, first compound 0.001 µM
  viability, T/C: 85.8%
Second compound 0.1 µM, first compound 0.00316 µM
  viability, T/C: 55.2%
Second compound 0.1 µM, first compound 0.01 µM
  viability, T/C: 38.9%
[1]
  viability, T/C: 33.8%
[2]
  viability, T/C: 28.5%
Second compound 0.316 µM, first compound 0.000316 µM
  viability, T/C: 103%
Second compound 0.316 µM, first compound 0.001 µM
  viability, T/C: 104%
Second compound 0.316 µM, first compound 0.00316 µM
  viability, T/C: 62.5%
Second compound 0.316 µM, first compound 0.01 µM
  viability, T/C: 42.6%
[3]
  viability, T/C: 30.9%
[4]
  viability, T/C: 32.4%
Second compound 1 µM, first compound 0.000316 µM
  viability, T/C: 93.7%
Second compound 1 µM, first compound 0.001 µM
  viability, T/C: 87.2%
Second compound 1 µM, first compound 0.00316 µM
  viability, T/C: 57.4%
Second compound 1 µM, first compound 0.01 µM
  viability, T/C: 44.2%
[5]
  viability, T/C: 36.2%
[6]
  viability, T/C: 26.9%
Second compound 3.16 µM, first compound 0.000316 µM
  viability, T/C: 95.8%
Second compound 3.16 µM, first compound 0.001 µM
  viability, T/C: 86.1%
Second compound 3.16 µM, first compound 0.00316 µM
  viability, T/C: 61.3%
Second compound 3.16 µM, first compound 0.01 µM
  viability, T/C: 42.5%
[7]
  viability, T/C: 35.4%
[8]
  viability, T/C: 28.8%
Second compound 10 µM, first compound 0.000316 µM
  viability, T/C: 99.3%
Second compound 10 µM, first compound 0.001 µM
  viability, T/C: 98.2%
Second compound 10 µM, first compound 0.00316 µM
  viability, T/C: 74.7%
Second compound 10 µM, first compound 0.01 µM
  viability, T/C: 40%
[9]
  viability, T/C: 36.7%
[10]
  viability, T/C: 28.6%

## CCc1c2c(nc3ccc(O)cc13)-c1cc3c(c(=O)n1C2)COC(=O)[C@]3(O)CC + NC1CCC(NC2CC2c2ccccc2)CC1
Second compound 0.1 µM
  IC50: < 0.949 nM
Second compound 0.316 µM
  IC50: < 0.949 nM
Second compound 1 µM
  IC50: < 0.949 nM
Second compound 3.16 µM
  IC50: < 0.949 nM
Second compound 10 µM
  IC50: < 0.949 nM
[11]
  viability, T/C: 34.6%
[12]
  viability, T/C: 27.8%
[13]
  viability, T/C: 24.9%
[14]
  viability, T/C: 24.2%
[15]
  viability, T/C: 5.01%
[16]
  viability, T/C: 2.12%
[17]
  viability, T/C: 35.5%
[18]
  viability, T/C: 28.4%
[19]
  viability, T/C: 25%
[20]
  viability, T/C: 22.8%
[21]
  viability, T/C: 3.48%
[22]
  viability, T/C: 0.41%
[23]
  viability, T/C: 36.2%
[24]
  viability, T/C: 24.4%
[25]
  viability, T/C: 26.4%
[26]
  viability, T/C: 23.7%
[27]
  viability, T/C: 4.59%
[28]
  viability, T/C: 0.62%
[29]
  viability, T/C: 31.6%
[30]
  viability, T/C: 25.7%
[31]
  viability, T/C: 26.7%
[32]
  viability, T/C: 23.6%
[33]
  viability, T/C: 5.29%
[34]
  viability, T/C: 1.43%
[35]
  viability, T/C: 30.6%
[36]
  viability, T/C: 25.7%
[37]
  viability, T/C: 25.2%
[38]
  viability, T/C: 25.6%
[39]
  viability, T/C: 3.82%
[40]
  viability, T/C: 0.29%

## Nc1ccccc1NC(=O)c1ccc(CNC(=O)OCc2cccnc2)cc1 + NC1CCC(NC2CC2c2ccccc2)CC1
Second compound 0.1 µM
  IC50: 206 nM
Second compound 0.316 µM
  IC50: 205 nM
Second compound 1 µM
  IC50: 233 nM
Second compound 3.16 µM
  IC50: 216 nM
Second compound 10 µM
  IC50: 235 nM
[13]
  viability, T/C: 115%
[14]
  viability, T/C: 89.3%
[15]
  viability, T/C: 73.5%
[16]
  viability, T/C: 39.5%
Second compound 0.1 µM, first compound 0.949 µM
  viability, T/C: 15.8%
Second compound 0.1 µM, first compound 3 µM
  viability, T/C: 0.37%
[19]
  viability, T/C: 112%
[20]
  viability, T/C: 96.2%
[21]
  viability, T/C: 74.1%
[22]
  viability, T/C: 36.5%
Second compound 0.316 µM, first compound 0.949 µM
  viability, T/C: 16.6%
Second compound 0.316 µM, first compound 3 µM
  viability, T/C: 0.73%
[25]
  viability, T/C: 104%
[26]
  viability, T/C: 90.2%
[27]
  viability, T/C: 76.5%
[28]
  viability, T/C: 41.4%
Second compound 1 µM, first compound 0.949 µM
  viability, T/C: 17.5%
Second compound 1 µM, first compound 3 µM
  viability, T/C: 1.37%
[31]
  viability, T/C: 102%
[32]
  viability, T/C: 103%
[33]
  viability, T/C: 66.6%
[34]
  viability, T/C: 40.4%
Second compound 3.16 µM, first compound 0.949 µM
  viability, T/C: 21.5%
Second compound 3.16 µM, first compound 3 µM
  viability, T/C: 1.18%
[37]
  viability, T/C: 106%
[38]
  viability, T/C: 88%
[39]
  viability, T/C: 66.5%
[40]
  viability, T/C: 45.9%
Second compound 10 µM, first compound 0.949 µM
  viability, T/C: 23.6%
Second compound 10 µM, first compound 3 µM
  viability, T/C: 0.93%

## Nc1ccn(C2OC(CO)C(O)C2(F)F)c(=O)n1 (stereo not given) + NC1CCC(NC2CC2c2ccccc2)CC1
Second compound 0.1 µM
  IC50: < 0.949 nM
Second compound 0.316 µM
  IC50: < 0.949 nM
Second compound 1 µM
  IC50: < 0.949 nM
Second compound 3.16 µM
  IC50: < 0.949 nM
Second compound 10 µM
  IC50: < 0.949 nM
[11]
  viability, T/C: 28.7%
[12]
  viability, T/C: 20.4%
[13]
  viability, T/C: 24.2%
[14]
  viability, T/C: 26.4%
[15]
  viability, T/C: 25.9%
[16]
  viability, T/C: 18.2%
[17]
  viability, T/C: 24.9%
[18]
  viability, T/C: 17.3%
[19]
  viability, T/C: 23.6%
[20]
  viability, T/C: 22.4%
[21]
  viability, T/C: 23.4%
[22]
  viability, T/C: 23.6%
[23]
  viability, T/C: 28.2%
[24]
  viability, T/C: 19.7%
[25]
  viability, T/C: 24.1%
[26]
  viability, T/C: 22.6%
[27]
  viability, T/C: 22%
[28]
  viability, T/C: 21.7%
[29]
  viability, T/C: 24.7%
[30]
  viability, T/C: 21.7%
[31]
  viability, T/C: 22.3%
[32]
  viability, T/C: 21.6%
[33]
  viability, T/C: 22.7%
[34]
  viability, T/C: 19.2%
[35]
  viability, T/C: 30.5%
[36]
  viability, T/C: 20.6%
[37]
  viability, T/C: 26.9%
[38]
  viability, T/C: 23.6%
[39]
  viability, T/C: 23%
[40]
  viability, T/C: 19.2%

## O=C(c1cc(Cc2n[nH]c(=O)c3ccccc23)ccc1F)N1CCN(C(=O)C2CC2)CC1 + NC1CCC(NC2CC2c2ccccc2)CC1
Second compound 0.1 µM
  IC50: 2730 nM
Second compound 0.316 µM
  IC50: 8240 nM
Second compound 1 µM
  IC50: 3580 nM
Second compound 3.16 µM
  IC50: 3790 nM
Second compound 10 µM
  IC50: 8940 nM
[1]
  viability, T/C: 100%
[2]
  viability, T/C: 93%
Second compound 0.1 µM, first compound 0.316 µM
  viability, T/C: 93.3%
Second compound 0.1 µM, first compound 1 µM
  viability, T/C: 65.5%
Second compound 0.1 µM, first compound 3.16 µM
  viability, T/C: 49%
Second compound 0.1 µM, first compound 10 µM
  viability, T/C: 44.4%
[3]
  viability, T/C: 107%
[4]
  viability, T/C: 102%
Second compound 0.316 µM, first compound 0.316 µM
  viability, T/C: 99.7%
Second compound 0.316 µM, first compound 1 µM
  viability, T/C: 76.2%
Second compound 0.316 µM, first compound 3.16 µM
  viability, T/C: 60.1%
Second compound 0.316 µM, first compound 10 µM
  viability, T/C: 47.5%
[5]
  viability, T/C: 90.8%
[6]
  viability, T/C: 89.9%
Second compound 1 µM, first compound 0.316 µM
  viability, T/C: 90%
Second compound 1 µM, first compound 1 µM
  viability, T/C: 76.1%
Second compound 1 µM, first compound 3.16 µM
  viability, T/C: 50.8%
Second compound 1 µM, first compound 10 µM
  viability, T/C: 44.5%
[7]
  viability, T/C: 94.1%
[8]
  viability, T/C: 98.5%
Second compound 3.16 µM, first compound 0.316 µM
  viability, T/C: 88.6%
Second compound 3.16 µM, first compound 1 µM
  viability, T/C: 73.3%
Second compound 3.16 µM, first compound 3.16 µM
  viability, T/C: 51.3%
Second compound 3.16 µM, first compound 10 µM
  viability, T/C: 42.5%
[9]
  viability, T/C: 104%
[10]
  viability, T/C: 96.3%
Second compound 10 µM, first compound 0.316 µM
  viability, T/C: 89.7%
Second compound 10 µM, first compound 1 µM
  viability, T/C: 75.7%
Second compound 10 µM, first compound 3.16 µM
  viability, T/C: 58.1%
Second compound 10 µM, first compound 10 µM
  viability, T/C: 49.5%
